Measurements reported in publication PMC5085761 (International Journal of Molecular Sciences, 2016).

Legend:
Type in all cases: in vitro ADME
OATP1B3 = biological target: T1, OATP1B3 (Homo sapiens, UniProt Q9NPD5); test: Inhibition of tracer uptake in OATP1B3-expressing cells; conditions: OATP1B3, tracer [3H]E2G 0.1 µM, 100 µM–10 mM fluciclovine
T1 construct: host or cells: HEK293
T1 sequence (Q9NPD5 1-702): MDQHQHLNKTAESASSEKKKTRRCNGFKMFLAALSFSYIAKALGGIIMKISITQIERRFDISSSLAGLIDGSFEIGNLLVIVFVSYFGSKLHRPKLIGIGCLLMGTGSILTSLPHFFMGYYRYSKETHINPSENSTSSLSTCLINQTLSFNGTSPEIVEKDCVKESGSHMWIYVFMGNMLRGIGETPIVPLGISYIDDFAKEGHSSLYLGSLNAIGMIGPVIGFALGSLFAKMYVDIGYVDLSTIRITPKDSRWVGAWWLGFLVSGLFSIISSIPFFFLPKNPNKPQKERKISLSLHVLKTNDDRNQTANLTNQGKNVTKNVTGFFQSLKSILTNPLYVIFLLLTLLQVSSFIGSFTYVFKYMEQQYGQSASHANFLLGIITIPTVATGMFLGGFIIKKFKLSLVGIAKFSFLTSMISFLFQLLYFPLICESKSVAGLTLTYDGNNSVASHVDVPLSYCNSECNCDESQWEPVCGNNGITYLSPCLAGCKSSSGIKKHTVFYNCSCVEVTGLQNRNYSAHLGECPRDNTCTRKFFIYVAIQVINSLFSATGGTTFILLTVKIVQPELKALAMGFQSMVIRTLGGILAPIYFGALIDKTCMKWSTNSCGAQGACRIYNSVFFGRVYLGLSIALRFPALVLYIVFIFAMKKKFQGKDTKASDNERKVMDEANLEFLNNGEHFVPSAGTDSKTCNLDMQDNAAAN
Procedure: (§1) For the SLC transporter experiments, Mock Flp-in-293 cells (Flp/mock), OAT1-expressing Flp-in-293 cells (Flp/OAT1), mock HEK293 cells (HEK/mock), and OATP1B3-expressing HEK293 cells (HEK/OATP1B3) were obtained from Kanazawa University (Ishikawa, Japan). Briefly, Flp-in-293 and HEK293 cells were transfected with the appropriate plasmid DNA and selected using antibiotics (hygromycin or G-418). All cell lines were cultured in DMEM (Life Technologies Japan) supplemented with 10% (v/v) fetal bovine serum (American Type Culture Collection) and antibiotics (100 U/mL penicillin and 100 μg/mL streptomycin (Life Technologies Japan) for mock cells, 0.2 mg/mL hygromycin for Flp/OAT1 cells, and 1.2 mg/mL G-418 (Roche Diagnostics K.K., Tokyo, Japan) for HEK/OATP1B3 cells) at 37 °C under an atmosphere containing 5% CO2. […]
(§2) The experiments were performed as described previously, with minor modifications. […] The cells were lysed in 0.3 mL of 0.1N NaOH at room temperature, after which the radioactivity of each aliquot was measured as described above. The protein concentration of the cell lysate was determined with a VersaMax microplate reader (Molecular Devices Japan K.K., Osaka, Japan) or SpectraMax i3x (Molecular Devices Japan K.K.; only for OATP1B1) using a BCA Protein Assay Kit (Thermo Fisher Scientific, Kanagawa, Japan). Tracer uptake was expressed as pmol/mg protein. […]

OAT1 = biological target: T2, OAT1 (Homo sapiens, UniProt Q4U2R8); test: [14C]fluciclovine uptake by OAT1-expressing cells; conditions: OAT1 cells vs mock cells
T2 construct: host or cells: Flp-in-293
T2 sequence (Q4U2R8 1-563): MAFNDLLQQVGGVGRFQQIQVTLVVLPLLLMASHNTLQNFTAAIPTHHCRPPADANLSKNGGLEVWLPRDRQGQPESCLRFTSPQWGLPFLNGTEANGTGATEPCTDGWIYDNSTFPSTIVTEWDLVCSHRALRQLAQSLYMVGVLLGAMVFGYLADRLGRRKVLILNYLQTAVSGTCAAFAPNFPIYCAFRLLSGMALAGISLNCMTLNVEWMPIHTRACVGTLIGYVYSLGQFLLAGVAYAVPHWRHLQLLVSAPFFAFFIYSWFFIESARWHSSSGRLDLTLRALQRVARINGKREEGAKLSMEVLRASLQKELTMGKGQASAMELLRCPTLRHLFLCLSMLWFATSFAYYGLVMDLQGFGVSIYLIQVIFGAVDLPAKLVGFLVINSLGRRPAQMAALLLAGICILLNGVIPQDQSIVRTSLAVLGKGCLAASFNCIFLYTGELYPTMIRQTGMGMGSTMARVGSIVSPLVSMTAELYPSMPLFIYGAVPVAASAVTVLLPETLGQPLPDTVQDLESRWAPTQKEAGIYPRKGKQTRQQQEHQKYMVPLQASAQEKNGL
Procedure: as §1, §2

OAT3 = biological target: T3, OAT3 (Homo sapiens, UniProt Q8TCC7); test: [14C]fluciclovine uptake by OAT3-expressing cells; conditions: OAT3 cells vs mock cells
T3 construct: host or cells: HEK293
T3 sequence (Q8TCC7 1-542): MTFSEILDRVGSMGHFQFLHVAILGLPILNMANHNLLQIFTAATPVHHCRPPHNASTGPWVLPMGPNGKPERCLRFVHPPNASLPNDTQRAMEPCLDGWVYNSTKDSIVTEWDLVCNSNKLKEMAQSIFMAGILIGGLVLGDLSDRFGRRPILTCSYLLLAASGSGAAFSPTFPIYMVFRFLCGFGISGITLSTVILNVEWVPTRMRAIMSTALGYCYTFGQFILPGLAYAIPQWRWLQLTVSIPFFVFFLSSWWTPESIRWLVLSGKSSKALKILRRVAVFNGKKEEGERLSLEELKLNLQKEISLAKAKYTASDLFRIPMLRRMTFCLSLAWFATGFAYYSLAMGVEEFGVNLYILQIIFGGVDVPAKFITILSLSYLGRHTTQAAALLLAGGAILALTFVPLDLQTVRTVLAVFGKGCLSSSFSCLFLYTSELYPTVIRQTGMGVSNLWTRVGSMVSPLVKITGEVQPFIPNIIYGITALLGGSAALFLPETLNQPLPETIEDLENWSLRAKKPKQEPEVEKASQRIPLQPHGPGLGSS

| inhibition by fluciclovine at millimolar concentrations observed (OATP1B3) | Structure (SMILES) | drug transporter-mediated uptake (OAT1) | drug transporter-mediated uptake (OAT3) |
| --- | --- | --- | --- |
| not | N[C@]1(C(=O)O)C[C@@H](F)C1 [fluciclovine] | – | – |
| – | N[14C]1(C(=O)O)CC(F)C1 (stereo not drawn) [[^14C]fluciclovine, trans-1-amino-3-fluoro[1-^14C]cyclobutanecarboxylic acid] | negligible | negligible |
